According to patent US20240207427A1, “SELECTIVE DRUG RELEASE FROM INTERNALIZED CONJUGATES OF BIOLOGICALLY ACTIVE COMPOUNDS” (priority 2021, published 2024):
Where two headings read alike, the source gives them in different places.

Assays:
Type in all cases: cell-based
[1] = system: non-small-cell lung cancer cells (Calu1); assay: In vitro potency (CellTiter-Glo, 96 h), Calu1; details: Homo sapiens, Calu-1, 96 h, read-out: IC50 (nmol/L) Calu1
Protocol: (§1) In vitro potency was assessed on multiple cancer cell lines. All cell lines were authenticated by STR profiling at IDEXX Bioresearch and cultured for no more than 2 months after resuscitation. Cells cultured in log-phase growth were seeded for 24 hours in 96-well plates containing […] RPMI 1640 supplemented with 20% FBS. Serial dilutions of antibody-drug conjugates in cell culture media were prepared at 4× working concentrations, and 50 μL of each dilution was added to the 96-well plates. Following addition of test articles, cells were incubated with test articles for 4 days at 37 0° C. After 96 hours, growth inhibition was assessed by CellTiterGlo® (Promega, Madison, WI) and luminescence was measured on a plate reader.
In Table 7, IC50 values for ADCs are given in ng/mL. Cell viability was determined by CellTiter-Glo staining after 96 h exposure to ADC. ND=Not Determined. Ag2 is an antibody targeting a ubiquitous and readily internalizable antigen. The cancer cell lines tested are renal carcinoma cells (786-0), melanoma cells (A2058), pancreatic cancer cells (BxPC3), non-small-cell lung cancer cells (Calu1), anaplastic large cell lymphoma cells (DEL, DELBVR, Karpas299), Hodgkin's lymphoma cells (L540cy), (Ls174T), breast cancer cells (MDA-MB-231), acute myeloid leukemia cells (MOLM-13), and B-lymphocyte cancer cells (SU-DHL4).
as §1, with “FBS.” for “FBS. Serial dilutions of antibody-drug conjugates in cell culture media were prepared at 4× working concentrations, and 50 μL of each dilution was added to the 96-well plates.”
Cell viability was determined by CellTiter-Glo staining after 96 h exposure to the compound. ND=Not Determined. The cancer cell lines tested are renal carcinoma cells (786-0), melanoma cells (A2058), pancreatic cancer cells (BxPC3), non-small-cell lung cancer cells (Calu1), anaplastic large cell lymphoma cells (DEL, DELBVR, Karpas299), Hodgkin's lymphoma cells (L540cy), (Ls 174T), breast cancer cells (MDA-MB-231), acute myeloid leukemia cells (MOLM-13), B-lymphocyte cancer cells (SU-DHL4), multiple myeloma cells (MM.1R), (U266), and melanoma cells (SK-MEL-5).
as §1, with “37°” for “37 0°”
In the following Tables IC50 values for ADCs and CPT free drugs are given in ng/mL and nmol/L concentrations. Cell viability was determined by CellTiter-Glo staining after 96 h exposure to ADC or CPT free drug.
Cell viability was determined by CellTiter-Glo staining after 96 h exposure to ADC. ND=Not Determined.

[2] = system: Hodgkin's lymphoma cells (L540cy); assay: In vitro potency (CellTiter-Glo, 96 h), L540cy
In short: (§2)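 IC50 (ng/mL or nmol/L) derived from CellTiter-Glo luminescence after 96 h exposure at 37 °C to serial dilutions of ADC or CPT free drug. Log-phase cells had been plated 24 h beforehand in RPMI 1640 containing 20% FBS.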

[3] = system: renal carcinoma cells (786-O); assay: In vitro potency (CellTiter-Glo, 96 h), 786-O; details: Homo sapiens, 786-0, 96 h, CellTiter-Glo after 96 h exposure
In short: as §2

[4] = system: anaplastic large cell lymphoma cells (DEL); assay: In vitro potency (CellTiter-Glo, 96 h), DEL
In short: as §2

melanoma cells (A2058) = assay: In vitro potency (CellTiter-Glo, 96 h), A2058; details: Homo sapiens, A2058, 96 h, read-out: IC50 (nmol/L) A2058
In short: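 RPMI 1640/20% FBS cultures, log phase, plated 24 h → ADC titration → 4 d, 37 °C → luminescence → IC50, ng/mL.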

[5] = system: acute myeloid leukemia cells (MOLM-13); assay: In vitro potency (CellTiter-Glo, 96 h), MOLM-13; details: Homo sapiens, MOLM-13, 96 h, CellTiter-Glo after 96 h exposure
In short: (§3)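 Seed log-phase cells 24 h (RPMI 1640, 20% FBS); add ADC serial dilutions; incubate 96 h, 37 °C; read luminescence; IC50 in ng/mL.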

[6] = system: B-lymphocyte cancer cells (SU-DHL4); assay: In vitro potency (CellTiter-Glo, 96 h), SU-DHL-4; details: Homo sapiens, SU-DHL-4, 96 h, CellTiter-Glo after 96 h exposure
In short: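 Growth inhibition after 96 h at 37 °C with test article, measured by luminescence; cells in RPMI 1640, 20% FBS.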

[7] = system: anaplastic large cell lymphoma cells (DELBVR); assay: In vitro potency (CellTiter-Glo, 96 h), DELBVR
In short: as §2

[8] = system: anaplastic large cell lymphoma cells (Karpas299); assay: In vitro potency (CellTiter-Glo, 96 h), Karpas299; details: Homo sapiens, KARPAS-299, 96 h, CellTiter-Glo after 96 h exposure
In short: as §2

Ls174T cells = assay: In vitro potency (CellTiter-Glo, 96 h), Ls174T; details: Homo sapiens, LS174T, CellTiter-Glo after 96 h exposure
In short: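 Antibody-drug conjugates, prepared as dilution series in culture medium, were added to cells seeded a day earlier in RPMI 1640 supplemented with 20% FBS. After four days at 37 °C, luminescence measured growth inhibition.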

[9] = system: breast cancer cells (MDA-MB-231); assay: In vitro potency (CellTiter-Glo, 96 h), MDA-MB-231; details: Homo sapiens, MDA-MB-231, 96 h, CellTiter-Glo after 96 h exposure
In short: as §2

[10] = system: pancreatic cancer cells (BxPC3); assay: In vitro potency (CellTiter-Glo, 96 h), BxPC3; details: Homo sapiens, BXPC-3, 96 h, CellTiter-Glo after 96 h exposure
In short: as §3

[11] = CPT free drugs, Table 24, CellTiter-Glo after 96 h exposure
[12] = CPT free drugs, Table 24, CellTiter-Glo after 96 h exposure, read-out: IC50 (nmol/L) L540cy
[13] = CPT free drugs, Table 24, read-out: IC50 (nmol/L) 786-O
[14] = CPT free drugs, Table 24, CellTiter-Glo after 96 h exposure, read-out: IC50 (nmol/L) DEL
[15] = CPT free drugs, Table 24, read-out: IC50 (nmol/L) MOLM-13
[16] = CPT free drugs, Table 24, read-out: IC50 (nmol/L) SU-DHL-4
[17] = CPT free drugs, Table 24, CellTiter-Glo after 96 h exposure, read-out: IC50 (nmol/L) DELBVR
[18] = CPT free drugs, Table 24, read-out: IC50 (nmol/L) Karpas299
[19] = CPT free drugs, Table 24, read-out: IC50 (nmol/L) Ls174T
[20] = CPT free drugs, Table 24, read-out: IC50 (nmol/L) MDAMB231
[21] = CPT free drugs, Table 24, read-out: IC50 (nmol/L) BxPC3

Row | SMILES | IC50 [1, 11] [nmol/L] | IC50 [2, 12] [nmol/L] | IC50 [3, 13] [nmol/L] | IC50 [4, 14] [nmol/L] | IC50 (melanoma cells (A2058); [11]) [nmol/L] | IC50 [5, 15] [nmol/L] | IC50 [6, 16] [nmol/L] | IC50 [7, 17] [nmol/L] | IC50 [8, 18] [nmol/L] | IC50 (Ls174T cells; [19]) [nmol/L] | IC50 [9, 20] [nmol/L] | IC50 [10, 21] [nmol/L] | other results
1 | CC[C@@]1(O)C(=O)OCc2c1cc1n(c2=O)Cc2c-1nc1cc(C)c(F)cc1c2CN [Compound 2aa] | > 1000 | > 1000 | 265 | 82 | 130 | > 1000 | 227 | 87 | 380 | 240 | > 1000 | > 1000 | 
2 | CC[C@@]1(O)C(=O)OCc2c1cc1n(c2=O)Cc2c-1nc1cc(C)c(C)c(F)c1c2CN [Compound 2o] | 409 | 20 | 66 | 10 | 18 | 349 | 18 | 16 | 37 | 19.3 | 37 | > 1000 | 
3 | CC[C@@]1(O)C(=O)OCc2c1cc1n(c2=O)Cc2c-1nc1cc3c(cc1c2CN)OCC3 [Compound 2m] |  |  |  |  |  |  |  |  |  |  |  |  | IC50 [1]: 249 nmol/L; IC50 ([2]; read-out: IC50 (nmol/L) L540cy, CPT free drugs, Table 24, CellTiter-Glo after 96 h exposure): 17.8 nmol/L; IC50 ([3]; read-out: IC50 (nmol/L) 786-O, CPT free drugs, Table 24): 55 nmol/L; IC50 ([4]; read-out: IC50 (nmol/L) DEL, CPT free drugs, Table 24, CellTiter-Glo after 96 h exposure): 11 nmol/L; IC50 (melanoma cells (A2058)): 16.2 nmol/L; IC50 ([5]; read-out: IC50 (nmol/L) MOLM-13, CPT free drugs, Table 24): 60.7 nmol/L; IC50 ([6]; read-out: IC50 (nmol/L) SU-DHL-4, CPT free drugs, Table 24): 22.4 nmol/L; IC50 ([7]; read-out: IC50 (nmol/L) DELBVR, CPT free drugs, Table 24, CellTiter-Glo after 96 h exposure): 14 nmol/L; IC50 ([8]; read-out: IC50 (nmol/L) Karpas299, CPT free drugs, Table 24): 57.2 nmol/L; IC50 (Ls174T cells; 96 h, read-out: IC50 (nmol/L) Ls174T, CPT free drugs, Table 24): 17 nmol/L; IC50 ([9]; read-out: IC50 (nmol/L) MDAMB231, CPT free drugs, Table 24): 35 nmol/L; IC50 ([10]; read-out: IC50 (nmol/L) BxPC3, CPT free drugs, Table 24): 128 nmol/L
4 | CC[C@@]1(O)C(=O)OCc2c1cc1n(c2=O)Cc2c-1nc1ccc(Br)cc1c2CN [Compound 2e] | 55 | 4.3 | 4.2 | 1 | 5 | 56 | 5.7 | 4 | 10.7 | 4.5 | 7.1 | 30.7 | 
